Test results from PubChem BioAssay (NCI).
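GI50 marks 50% less growth. TGI is the concentration that stops growth completely.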

What was measured:
Assay in all cases: NCI anticancer screen, dose series, 384-well format
[1] = system: HS 578T breast
[2] = system: K-562 leukemia
[3] = system: SW-620 colon
[4] = system: SN12C renal
[5] = system: CAKI-1 renal
[6] = system: SK-MEL-28 melanoma
[7] = system: LOX IMVI melanoma
[8] = system: HCC-2998 colon
[9] = system: NCI-H23 lung
[10] = system: TK-10 renal
[11] = system: SR leukemia
[12] = system: HOP-62 NSCLC
[13] = system: ACHN renal
[14] = system: HOP-92 NSCLC
[15] = system: A498 renal
[16] = system: OVCAR-4 ovarian
[17] = system: MCF7 breast
[18] = system: HCT-15 colon
[19] = system: UACC-257 melanoma
[20] = system: T-47D breast
[21] = system: NCI/ADR-RES ovarian
[22] = system: MALME-3M melanoma
[23] = system: KM12 colon
[24] = system: PC-3 prostate
[25] = system: MDA-MB-231 breast
[26] = system: NCI-H226 lung
[27] = system: 786-0 renal
[28] = system: MOLT-4 leukemia
[29] = system: SNB-19 CNS
[30] = system: NCI-H322M lung
[31] = system: A549 NSCLC
[32] = system: SF-539 CNS
[33] = system: NCI-H522 lung
[34] = system: DU-145 prostate
[35] = system: RXF 393 renal
[36] = system: HCT-116 colon
[37] = system: MDA-MB-435 melanoma
[38] = system: NCI-H460 NSCLC
[39] = system: SF-295 CNS
[40] = system: BT-549 breast
[41] = system: MDA-MB-468 breast
[42] = system: OVCAR-3 ovarian
[43] = system: EKVX NSCLC
[44] = system: SNB-75 CNS
[45] = system: UACC-62 melanoma
[46] = system: HL-60(TB) leukemia
[47] = system: U251 glioblastoma
[48] = system: CCRF-CEM leukemia
[49] = system: RPMI-8226 leukemia
[50] = system: IGROV1 ovarian
[51] = system: UO-31 renal
[52] = system: COLO 205 colon
[53] = system: SF-268 CNS
[54] = system: HT29 colon
[55] = system: SK-MEL-5 melanoma
[56] = system: M14 melanoma
[57] = system: SK-OV-3 ovarian
[58] = system: OVCAR-8 ovarian
[59] = system: SK-MEL-2 melanoma
[60] = system: OVCAR-5 ovarian

`CCCN(CCC)C(=O)C1=Cc2ccc(-c3ccc(C(=O)N4CCCC4)cc3)cc2N=C(N)C1` gave a GI50 [1] of 3.34 µM, a TGI [1] of 12 µM and a GI50 [2] of 2.52 µM. It also gave a TGI [2] of 10.3 µM, a GI50 [3] of 4.06 µM and a TGI [3] of 14.6 µM. The GI50 [4] was 13.4 µM, the TGI [4] was 29.4 µM and the GI50 [5] was 5.86 µM. It also gave a TGI [5] of 19.2 µM, a GI50 [6] of 11 µM and a TGI [6] of 23 µM. For the same compound, the GI50 [7] was 5.71 µM, the TGI [7] was 18.2 µM and the GI50 [8] was 5.42 µM. The TGI [8] was 18.3 µM, the GI50 [9] was 3.67 µM and the TGI [9] was 14.7 µM. The GI50 [10] was 10.3 µM, the TGI [10] was 23.3 µM and the GI50 [11] was 1.31 µM. It also gave a TGI [11] of 3.21 µM, a GI50 [12] of 3.07 µM and a TGI [12] of 11.7 µM. The GI50 [13] was 10.8 µM, the TGI [13] was 23.5 µM and the GI50 [14] was 4 µM. For the same compound, the TGI [14] was 15.7 µM, the GI50 [15] was 3.93 µM and the TGI [15] was 15.3 µM. The GI50 [16] was 12.4 µM, the TGI [16] was 26 µM and the GI50 [17] was 3.11 µM. The TGI [17] was 12.1 µM, the GI50 [18] was 3.48 µM and the TGI [18] was 14.1 µM. For the same compound, the GI50 [19] was 5.77 µM, the TGI [19] was 18.7 µM and the GI50 [20] was 3.02 µM. For the same compound, the TGI [20] was 14.4 µM, the GI50 [21] was 12.8 µM and the TGI [21] was 27.9 µM. The GI50 [22] was 3.81 µM, the TGI [22] was 14.6 µM and the GI50 [23] was 2.81 µM. It also gave a TGI [23] of 11.2 µM, a GI50 [24] of 3.66 µM and a TGI [24] of 13.9 µM. The GI50 [25] was 5.09 µM, the TGI [25] was 17.5 µM and the GI50 [26] was 10.7 µM. It also gave a TGI [26] of 23.8 µM, a GI50 [27] of 4.81 µM and a TGI [27] of 16.6 µM. It also gave a GI50 [28] of 2.51 µM, a TGI [28] of 8.74 µM and a GI50 [29] of 4.95 µM. It also gave a TGI [29] of 17.4 µM, a GI50 [30] of 7.93 µM and a TGI [30] of 20.6 µM. It also gave a GI50 [31] of 6.2 µM, a TGI [31] of 19.9 µM and a GI50 [32] of 3.99 µM. The TGI [32] was 16.6 µM, the GI50 [33] was 2.69 µM and the TGI [33] was 10.3 µM. The GI50 [34] was 9.15 µM, the TGI [34] was 22.2 µM and the GI50 [35] was 2.52 µM. For the same compound, the TGI [35] was 10.4 µM, the GI50 [36] was 3.47 µM and the TGI [36] was 13.1 µM. It also gave a GI50 [37] of 2.2 µM, a TGI [37] of 5.73 µM and a GI50 [38] of 2.23 µM. It also gave a TGI [38] of 5.31 µM, a GI50 [39] of 3.42 µM and a TGI [39] of 12.9 µM. For the same compound, the GI50 [40] was 4.19 µM, the TGI [40] was 14.8 µM and the GI50 [41] was 1.63 µM. The TGI [41] was 5.02 µM, the GI50 [42] was 2.78 µM and the TGI [42] was 6.51 µM. For the same compound, the GI50 [43] was 3.93 µM, the TGI [43] was 16.5 µM and the GI50 [44] was 3.48 µM. For the same compound, the TGI [44] was 12.5 µM, the GI50 [45] was 4.59 µM and the TGI [45] was 16.4 µM. It also gave a GI50 [46] of 1.52 µM, a TGI [46] of 2.86 µM and a GI50 [47] of 5.15 µM. It also gave a TGI [47] of 17.4 µM, a GI50 [48] of 3.53 µM and a TGI [48] of 11.2 µM. For the same compound, the GI50 [49] was 1.78 µM, the TGI [49] was 5.78 µM and the GI50 [50] was 10 µM. It also gave a TGI [50] of 23.4 µM, a GI50 [51] of 8.31 µM and a TGI [51] of 21.1 µM. For the same compound, the GI50 [52] was 4.89 µM, the TGI [52] was 16.9 µM and the GI50 [53] was 5.11 µM. For the same compound, the TGI [53] was 17.6 µM, the GI50 [54] was 3.41 µM and the TGI [54] was 11.9 µM. The GI50 [55] was 1.6 µM, the TGI [55] was 3.65 µM and the GI50 [56] was 3.76 µM. The TGI [56] was 13 µM, the GI50 [57] was 5.22 µM and the TGI [57] was 17.2 µM. It also gave a GI50 [58] of 8.34 µM and a TGI [58] of 21.4 µM.

With `Cn1nccc1Nc1nccc(-c2cc3c(s2)C(C)(C)N(CCN2CCOCC2)C3=O)n1` the GI50 [1] was 49.4 µM, the TGI [1] was over 100 µM and the GI50 [2] was 4.74 µM. It also gave a TGI [2] of over 100 µM, a GI50 [3] of 0.756 µM and a TGI [3] of over 100 µM. The GI50 [4] was 39.2 µM, the TGI [4] was over 100 µM and the GI50 [5] was 3.31 µM. The TGI [5] was over 100 µM, the GI50 [6] was 0.177 µM and the TGI [6] was 0.797 µM. For the same compound, the GI50 [7] was 0.345 µM, the TGI [7] was 1.55 µM and the GI50 [8] was 0.308 µM. It also gave a TGI [8] of 17.1 µM, a GI50 [9] of 0.301 µM and a TGI [9] of 9.1 µM. The GI50 [10] was 3.46 µM, the TGI [10] was over 100 µM and the GI50 [12] was 8.17 µM. It also gave a TGI [12] of over 100 µM, a GI50 [13] of 16.9 µM and a TGI [13] of over 100 µM. For the same compound, the GI50 [14] was 4.27 µM, the TGI [14] was over 100 µM and the GI50 [15] was 5.15 µM. The TGI [15] was over 100 µM, the GI50 [16] was over 100 µM and the TGI [16] was over 100 µM. It also gave a GI50 [59] of 0.372 µM, a TGI [59] of 1.45 µM and a GI50 [17] of 21.2 µM. It also gave a TGI [17] of over 100 µM, a GI50 [18] of 23.1 µM and a TGI [18] of over 100 µM. For the same compound, the GI50 [20] was over 100 µM, the TGI [20] was over 100 µM and the GI50 [21] was over 100 µM. For the same compound, the TGI [21] was over 100 µM, the GI50 [22] was 0.0557 µM and the TGI [22] was 0.296 µM. The GI50 [23] was 1.69 µM, the TGI [23] was over 100 µM and the GI50 [24] was 55.4 µM. It also gave a TGI [24] of over 100 µM, a GI50 [25] of 3.5 µM and a TGI [25] of over 100 µM. For the same compound, the GI50 [26] was 14.2 µM, the TGI [26] was over 100 µM and the GI50 [27] was 90.9 µM. The TGI [27] was over 100 µM, the GI50 [28] was 46 µM and the TGI [28] was over 100 µM. It also gave a GI50 [29] of 64.7 µM, a TGI [29] of over 100 µM and a GI50 [30] of 7.59 µM. The TGI [30] was over 100 µM, the GI50 [31] was 2.45 µM and the TGI [31] was over 100 µM. It also gave a GI50 [32] of 28.2 µM, a TGI [32] of over 100 µM and a GI50 [33] of 1.65 µM. For the same compound, the TGI [33] was 20.8 µM, the GI50 [34] was 23.6 µM and the TGI [34] was over 100 µM. The GI50 [35] was over 100 µM, the TGI [35] was over 100 µM and the GI50 [36] was 0.404 µM. For the same compound, the TGI [36] was over 100 µM, the GI50 [37] was 0.402 µM and the TGI [37] was 50.9 µM. The GI50 [38] was 4.26 µM, the TGI [38] was over 100 µM and the GI50 [39] was over 100 µM. The TGI [39] was over 100 µM, the GI50 [60] was 0.989 µM and the TGI [60] was over 100 µM. For the same compound, the GI50 [40] was 13.8 µM, the TGI [40] was over 100 µM and the GI50 [41] was 19.3 µM. The TGI [41] was 89 µM, the GI50 [42] was 51.4 µM and the TGI [42] was over 100 µM. The GI50 [43] was over 100 µM, the TGI [43] was over 100 µM and the GI50 [44] was over 100 µM. For the same compound, the TGI [44] was over 100 µM, the GI50 [45] was 0.138 µM and the TGI [45] was 1.76 µM. For the same compound, the GI50 [46] was 0.264 µM, the TGI [46] was 10.1 µM and the GI50 [47] was 25.9 µM. It also gave a TGI [47] of over 100 µM, a GI50 [48] of 34.2 µM and a TGI [48] of over 100 µM. For the same compound, the GI50 [49] was 2.23 µM, the TGI [49] was 8.87 µM and the GI50 [50] was 3.52 µM. For the same compound, the TGI [50] was over 100 µM, the GI50 [51] was 9.2 µM and the TGI [51] was over 100 µM. It also gave a GI50 [52] of 0.194 µM, a TGI [52] of 5.35 µM and a GI50 [53] of 50.9 µM. It also gave a TGI [53] of over 100 µM, a GI50 [54] of 0.618 µM and a TGI [54] of over 100 µM. For the same compound, the GI50 [55] was 0.619 µM, the TGI [55] was over 100 µM and the GI50 [56] was 0.157 µM. For the same compound, the TGI [56] was 0.905 µM, the GI50 [57] was 25.2 µM and the TGI [57] was over 100 µM. The GI50 [58] was 34.8 µM and the TGI [58] was over 100 µM.
